From patent publication US20230127839A1, “COMPOUNDS AND COMPOSITIONS FOR TREATING CONDITIONS ASSOCIATED WITH STING ACTIVITY” (IFM Due, Inc., priority 2019, published 2023)

The molecules below were run against T1, hSTING (Homo sapiens, UniProt Q86WV6, G230A/H232R/R293Q/R71H) (assay: STING reporter assay (luciferase) in THP1-Dual KO-IFNAR2 cells stimulated with 2'3'cGAMP). Details: 2'3'cGAMP 15 μM, 24 h, luciferase reporter activity.
T1 construct: host or cells: THP1-Dual KO-IFNAR2 cells
Format: cell-based
Method in brief: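 THP1-Dual KO-IFNAR2 cells (2×10E6 cells/mL) exposed to compounds at 0.0017-100 μM final, then stimulated with 2′3′cGAMP (15 μM final) delivered by Lipofectamine 2000 transfection. After 24 h at 37° C, secreted luciferase in supernatant read by QUANTI-Luc luminescence; EC50 calculated.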

T1 sequence (Q86WV6 whole entry R71H/G230A/H232R/R293Q): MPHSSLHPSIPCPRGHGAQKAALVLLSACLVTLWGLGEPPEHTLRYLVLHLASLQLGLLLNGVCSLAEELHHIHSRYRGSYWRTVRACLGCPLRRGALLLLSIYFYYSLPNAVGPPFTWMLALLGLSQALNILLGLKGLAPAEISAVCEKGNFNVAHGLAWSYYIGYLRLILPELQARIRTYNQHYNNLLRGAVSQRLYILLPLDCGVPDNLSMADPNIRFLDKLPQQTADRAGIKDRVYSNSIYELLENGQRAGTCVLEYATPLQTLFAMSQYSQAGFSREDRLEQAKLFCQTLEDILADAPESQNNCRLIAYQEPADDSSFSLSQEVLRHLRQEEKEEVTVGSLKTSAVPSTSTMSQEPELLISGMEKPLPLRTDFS

Question: With O=C(Nc1ccc(C2CN(CC(F)(F)F)C2)c(Cl)c1)Nc1c[nH]c2ccc(Cl)cc12 [Compound 218, 1-(5-chloro-1H-indol-3-yl)-3-(3-chloro-4-(1-(2,2,2-trifluoroethyl)azetidin-3-yl)phenyl)urea] as the molecule, how does the EC50 read?
Answer: The EC50 was 40 to 200 nM.

Question: How did the EC50 turn out when O=C(Nc1ccnc(C2CCCN(CC(F)(F)F)C2)c1)Nc1c[nH]c2cc(F)c(F)cc12 (stereo not drawn) [Compound 219, 1-(5,6-difluoro-1H-indol-3-yl)-3-(2-(1-(2,2,2-trifluoroethyl)piperidin-3-yl)pyridin-4-yl)urea] was run?
Answer: Its EC50 is 1000 to 5000 nM.

Question: With O=C(Nc1ccnc(C2CCC(F)(F)CC2)c1)Nc1c[nH]c2cc(F)c(F)cc12 [Compound 220, 1-(5,6-difluoro-1H-indol-3-yl)-3-(2-(4,4-difluorocyclohexyl)pyridin-4-yl)urea] as the molecule, how does the EC50 read?
Answer: Its EC50 is 200 to 1000 nM.

Question: O=C(Nc1cc(Cl)nc(C2CCC(F)(F)CC2)c1)Nc1c[nH]c2ccc(Cl)cc12 [Compound 221, 1-(5-chloro-1H-indol-3-yl)-3-(2-chloro-6-(4,4-difluorocyclohexyl)pyridin-4-yl)urea] was tested. Which EC50 did it give?
Answer: Its EC50 is 40 to 200 nM.

Question: O=C(Nc1cnn(CC2CCC(F)(F)CC2)c1)Nc1c[nH]c2ccc(Cl)cc12 [Compound 222, 1-(5-chloro-1H-indol-3-yl)-3-(1-((4,4-difluorocyclohexyl)methyl)-1H-pyrazo1-4-yl)urea] was tested. Which EC50 did it give?
Answer: The EC50 was 200 to 1000 nM.

Question: For O=C(Nc1cnn(C2CCN(CCC(F)(F)F)CC2)c1)Nc1c[nH]c2ccc(Cl)cc12 [Compound 223, 1-(5-chloro-1H-indol-3-yl)-3-(1-(1-(3,3,3-trifluoropropyl)piperidin-4-yl)-1H-pyrazo1-4-yl)urea], which EC50 is on record?
Answer: The EC50 was 1000 to 5000 nM.

Question: O=C(Nc1ccc(C2CC(F)(F)C2)c(Cl)c1)Nc1c[nH]c2cc(F)c(F)cc12 [Compound 225, 1-(3-chloro-4-(3,3-difluorocyclobutyl)phenyl)-3-(5,6-difluoro-1H-indol-3-yl)urea] was tested. Which EC50 did it give?
Answer: The EC50 was 200 to 1000 nM.

Question: O=C(Nc1ccc(C2CC(F)(F)C2)c(Cl)c1)Nc1c[nH]c2ccc(Cl)cc12 [Compound 226, 1-(5-chloro-1H-indol-3-yl)-3-(3-chloro-4-(3,3-difluorocyclobutyl)phenyl)urea] was tested. Which EC50 did it give?
Answer: Its EC50 is 40 to 200 nM.

Question: How did the EC50 turn out when O=C(Nc1cnc(C2CC(F)(F)C2)c(F)c1)Nc1c[nH]c2ccc(Cl)cc12 [Compound 227, 1-(5-chloro-1H-indol-3-yl)-3-(6-(3,3-difluorocyclobutyl)-5-fluoropyridin-3-yl)urea] was run?
Answer: Its EC50 is 40 to 200 nM.

Question: For COCCN(C(=O)Nc1c[nH]c2ccc(Cl)cc12)c1cnc(C2CCC(F)(F)CC2)c(Cl)c1 [Compound 228, 3-(5-chloro-1H-indol-3-yl)-1-(5-chloro-6-(4,4-difluorocyclohexyl)pyridin-3-yl)-1-(2-methoxyethyl)urea], which EC50 is on record?
Answer: Its EC50 is 200 to 1000 nM.

Question: Which EC50 does the source give for CCN(C(=O)Nc1c[nH]c2ccc(Cl)cc12)c1cnc(C2CCN(CC(F)(F)F)CC2)c(Cl)c1 [Compound 229, 3-(5-chloro-1H-indol-3-yl)-1-(5-chloro-6-(1-(2,2,2-trifluoroethyl)piperidin-4-yl)pyridin-3-yl)-1-ethylurea] here?
Answer: Its EC50 is 200 to 1000 nM.

Question: For O=C(Nc1cnn(C2CCC(F)(F)CC2)c1)Nc1c[nH]c2cc(F)c(Cl)cc12 [Compound 230, 1-(5-chloro-6-fluoro-1H-indol-3-yl)-3-(1-(4,4-difluorocyclohexyl)-1H-pyrazol-4-yl)urea], which EC50 is on record?
Answer: Its EC50 is 200 to 1000 nM.

Question: With O=C(Nc1cnc(Cl)c(C2CCC(F)(F)CC2)c1)Nc1c[nH]c2ccc(Cl)cc12 [Compound 231, 1-(5-chloro-1H-indol-3-yl)-3-(6-chloro-5-(4,4-difluorocyclohexyl)pyridin-3-yl)urea] as the molecule, how does the EC50 read?
Answer: Its EC50 is 40 to 200 nM.

Question: For O=C(Nc1cnc(N2CCC(F)(F)CC2)c(Cl)c1)Nc1c[nH]c2c(Br)cc(Cl)cc12 [Compound 232, 1-(7-bromo-5-chloro-1H-indol-3-yl)-3-(5-chloro-6-(4,4-difluoropiperidin-1-yl)pyridin-3-yl)urea], which EC50 is on record?
Answer: The EC50 was 200 to 1000 nM.

Question: Which EC50 does the source give for O=C(Nc1cnc(N2CC(C(F)(F)F)C2)c(Cl)c1)Nc1c[nH]c2ccc(Cl)cc12 [Compound 233, 1-(5-chloro-1H-indol-3-yl)-3-(5-chloro-6-(3-(trifluoromethyl)azetidin-1-yl)pyridin-3-yl)urea] here?
Answer: Its EC50 is 40 to 200 nM.

Question: How did the EC50 turn out when O=C(Nc1cnn(C2CC3(C2)CC(F)(F)C3)c1)Nc1c[nH]c2ccc(Cl)cc12 [Compound 234, 1-(5-chloro-1H-indol-3-yl)-3-(1-(6,6-difluorospiro[3.3]heptan-2-yl)-1H-pyrazo1-4-yl)urea] was run?
Answer: The EC50 was 40 to 200 nM.

Question: For O=C(Nc1cnn(CC2CCC2)c1)Nc1c[nH]c2ccc(Cl)cc12 [Compound 235, 1-(5-chloro-1H-indol-3-yl)-3-(1-(cyclobutylmethyl)-1H-pyrazol-4-yl)urea], which EC50 is on record?
Answer: The EC50 was 200 to 1000 nM.

Question: Which EC50 does the source give for O=C(Nc1cnc(N2CCC3(CC2)CC3(F)F)c(Cl)c1)Nc1c[nH]c2cc(F)c(F)cc12 [Compound 236, 1-(5-chloro-6-(1,1-difluoro-6-azaspiro[2.5]octan-6-yl)pyridin-3-yl)-3-(5,6-difluoro-1H-indol-3-yl)urea] here?
Answer: Its EC50 is 40 to 200 nM.

Question: Which EC50 does the source give for O=C(Nc1cnc(N2CCC3(CC2)CC3(F)F)c(Cl)c1)Nc1c[nH]c2ccc(Cl)cc12 [Compound 237, 1-(5-chloro-1H-indol-3-yl)-3-(5-chloro-6-(1,1-difluoro-6-azaspiro[2.5]octan-6-yl)pyridin-3-yl)urea] here?
Answer: The EC50 was 40 to 200 nM.

Question: How did the EC50 turn out when O=C(Nc1cnc(C2CCN(CC(F)(F)F)C2)c(Cl)c1)Nc1c[nH]c2ccc(Cl)cc12 (stereo not drawn) [Compound 238, 1-(5-chloro-1H-indol-3-yl)-3-(5-chloro-6-(1-(2,2,2-trifluoroethyl)pyrrolidin-3-yl)pyridin-3-yl)urea] was run?
Answer: Its EC50 is 40 to 200 nM.

Question: Which EC50 does the source give for O=C(Nc1cnc(N2CCC3(CC2)CC3)c(Cl)c1)Nc1c[nH]c2ccc(F)cc12 [Compound 239, 1-(5-chloro-6-(6-azaspiro[2.5]octan-6-yl)pyridin-3-yl)-3-(5-fluoro-1H-indol-3-yl)urea] here?
Answer: The EC50 was 40 to 200 nM.

Question: How did the EC50 turn out when O=C(Nc1cnc(N2CCC3(CC2)CC3)c(F)c1)Nc1c[nH]c2ccc(Cl)cc12 [Compound 240, 1-(5-chloro-1H-indol-3-yl)-3-(5-fluoro-6-(6-azaspiro[2.5]octan-6-yl)pyridin-3-yl)urea] was run?
Answer: Its EC50 is 40 to 200 nM.

Question: Which EC50 does the source give for O=C(Nc1cnc(N2CCC3(CC2)CC3)c(Cl)c1)Nc1c[nH]c2cc(F)c(F)cc12 [Compound 241, 1-(5-chloro-6-(6-azaspiro[2.5]octan-6-yl)pyridin-3-yl)-3-(5,6-difluoro-1H-indol-3-yl)urea] here?
Answer: Its EC50 is 40 to 200 nM.

Question: With O=C(Nc1cnc(C2CCN(CCC(F)(F)F)C2)c(Cl)c1)Nc1c[nH]c2ccc(Cl)cc12 (stereo not drawn) [Compound 242, 1-(5-chloro-1H-indol-3-yl)-3-(5-chloro-6-(1-(3,3,3-trifluoropropyl)pyrrolidin-3-yl)pyridin-3-yl)urea] as the molecule, how does the EC50 read?
Answer: Its EC50 is 40 to 200 nM.

Question: For O=C(Nc1cnc(N2CCC(F)(F)C2)c(Cl)c1)Nc1c[nH]c2ccc(Cl)cc12 [Compound 243, 1-(5-chloro-1H-indol-3-yl)-3-(5-chloro-6-(3,3-difluoropyrrolidin-1-yl)pyridin-3-yl)urea], which EC50 is on record?
Answer: Its EC50 is 40 to 200 nM.

Question: For O=C(Nc1cnc(N2CC3(C2)CC(F)(F)C3)c(Cl)c1)Nc1c[nH]c2c(Br)cc(Cl)cc12 [Compound 244, 1-(7-bromo-5-chloro-1H-indol-3-yl)-3-(5-chloro-6-(6,6-difluoro-2-azaspiro[3.3]heptan-2-yl)pyridin-3-yl)urea], which EC50 is on record?
Answer: The EC50 was 1000 to 5000 nM.

Question: With O=C(Nc1cnc(N2CCN(CCC(F)(F)F)CC2)c(Cl)c1)Nc1c[nH]c2ccc(F)cc12 [Compound 245, 1-(5-chloro-6-(4-(3,3,3-trifluoropropyl)piperazin-1-yl)pyridin-3-yl)-3-(5-fluoro-1H-indol-3-yl)urea] as the molecule, how does the EC50 read?
Answer: The EC50 was 40 to 200 nM.
